Results from patent US20260262643A1, “HERBICIDAL BENZOXAZINES” (FMC CORPORATION, priority 2022, published 2026).
Like-named read-outs stand apart in the source and are kept apart here.

Assays:
galium = test: Test A postemergence; assay type: in vivo, Galium aparine; conditions: Galium, post-emergence, 240 h, postemergence, 10 days, 0 to 100 scale (0 no effect, 100 complete control); for pest or weed control at 125 g/ha: 125 g ai/ha; for pest or weed control at 500 g/ha: 500 g ai/ha
Method in brief: (§1)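 Weeds and crops in loam–sand blend were sprayed preemergence onto soil or postemergence at 2–10 cm (one- to two-leaf stage). Test chemicals were in a non-phytotoxic solvent with surfactant. After 10 days in the greenhouse, injury was rated visually against untreated controls on a 0 (no effect) to 100 (complete control) scale.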

corn = test: Test A preemergence; assay type: in vivo, Zea mays; conditions: Zea mays, pre-emergence, 240 h; for Corn plant response rating (crop injury, 0 = no effect, 100 = complete kill) at 125 g/ha: 125 g ai/ha; for Corn plant response rating (crop injury, 0 = no effect, 100 = complete kill) at 500 g/ha: 500 g ai/ha
Method in brief: as §1

goosegrass = test: Test A postemergence; assay type: in vivo, Eleusine indica; conditions: Eleusine indica, post-emergence, 240 h, postemergence, 10 days, 0 to 100 scale (0 no effect, 100 complete control); for pest or weed control at 125 g/ha: 125 g ai/ha; for pest or weed control at 500 g/ha: 500 g ai/ha
Method in brief: as §1

sedge, umbrella = test: Test B flooded paddy test; assay type: in vivo, Cyperus difformis; conditions: Cyperus difformis, 312 h; 250 g ai/ha, Flood, 13 days, 0 to 100 scale (0 no effect, 100 complete control); read-out: Plant response rating, Sedge, Umbrella
Method in brief: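 Two-leaf plants, 3 cm flood, in-water application, 13-day greenhouse hold, visual 0–100 rating vs untreated checks.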

oat, wild = test: Test A postemergence; assay type: in vivo, Avena fatua; conditions: Avena fatua, post-emergence, 240 h, postemergence, 10 days, 0 to 100 scale (0 no effect, 100 complete control); for pest or weed control at 500 g/ha: 500 g ai/ha, visual injury, read-out: Plant response rating, Oat, Wild
Method in brief: as §1

ryegrass, Italian = test: Test A postemergence; assay type: in vivo, Lolium multiflorum; conditions: Lolium multiflorum, post-emergence, 240 h, postemergence, 10 days, 0 to 100 scale (0 no effect, 100 complete control); for pest or weed control at 500 g/ha: 500 g ai/ha, visual injury, read-out: Plant response rating, Ryegrass, Italian
Method in brief: as §1

foxtail, giant = test: Test A postemergence; assay type: in vivo, Setaria faberi; conditions: Setaria faberi, post-emergence, 240 h, postemergence, 10 days, 0 to 100 scale (0 no effect, 100 complete control); for pest or weed control at 125 g/ha: 125 g ai/ha; for pest or weed control at 500 g/ha: 500 g ai/ha
Method in brief: as §1

wheat [1] = test: Test A preemergence; assay type: in vivo, Triticum aestivum; conditions: Triticum aestivum, pre-emergence, 240 h, read-out: Plant response rating, Wheat; for plant injury at 125 g/ha: 125 g ai/ha; for plant injury at 500 g/ha: 500 g ai/ha
Method in brief: as §1

ragweed [2] = test: Test A postemergence; assay type: in vivo, Ambrosia artemisiifolia; conditions: Ambrosia artemisiifolia, post-emergence, 240 h, postemergence, 10 days, 0 to 100 scale (0 no effect, 100 complete control); for pest or weed control at 500 g/ha: 500 g ai/ha, visual injury, read-out: Plant response rating, Ragweed
Method in brief: as §1

pigweed, palmer = test: Test A preemergence; assay type: in vivo, Amaranthus palmeri; conditions: Amaranthus palmeri, pre-emergence, 240 h, read-out: Plant response rating, Pigweed, Palmer; for pest or weed control at 125 g/ha: 125 g ai/ha; for pest or weed control at 500 g/ha: 500 g ai/ha
Method in brief: as §1

wheat [3] = test: Test A postemergence; assay type: in vivo, Triticum aestivum; conditions: Triticum aestivum, post-emergence, 240 h, postemergence, 10 days, 0 to 100 scale (0 no effect, 100 complete control); for plant injury at 500 g/ha: 500 g ai/ha, visual injury, read-out: Plant response rating, Wheat
Method in brief: as §1

ragweed [4] = test: Test A preemergence; assay type: in vivo, Ambrosia artemisiifolia; conditions: Ambrosia artemisiifolia, pre-emergence, 240 h, read-out: Plant response rating, Ragweed; for pest or weed control at 125 g/ha: 125 g ai/ha; for pest or weed control at 500 g/ha: 500 g ai/ha
Method in brief: as §1

soybean [5] = test: Test A preemergence; assay type: in vivo, Glycine max; conditions: Glycine max, pre-emergence, 240 h, read-out: Plant response rating, Soybean; for plant injury at 125 g/ha: 125 g ai/ha; for plant injury at 500 g/ha: 500 g ai/ha
Method in brief: as §1

soybean [6] = test: Test A postemergence; assay type: in vivo, Glycine max; conditions: Glycine max, post-emergence, 240 h, postemergence, 10 days, 0 to 100 scale (0 no effect, 100 complete control); for plant injury at 500 g/ha: 500 g ai/ha, visual injury, read-out: Plant response rating, Soybean
Method in brief: as §1

[7] = visual injury, read-out: Plant response rating, Galium
[8] = visual injury after 10 days, 0 to 100 scale, 0 is no effect, 100 is complete control
[9] = visual injury, read-out: Plant response rating, Goosegrass
[10] = visual injury, read-out: Plant response rating, Foxtail, Giant
[11] = 0 to 100 scale (0 no effect, 100 complete control), 10 days

Cc1cccc2c1O[C@@H](C)CN2C(=O)c1cccc(-n2cnn(C)c2=O)c1 [Compound 117, 4-[3-[[(2S)-2,3-Dihydro-2,8-dimethyl-4H-1,4-benzoxazin-4-yl]carbonyl]phenyl]-2,4-dihydro-2-methyl-3H-1,2,4-triazol-3-one] gave a pest or weed control at 125 g/ha (galium; read-out: Galium plant response rating) of 0%, a pest or weed control at 500 g/ha (galium; [7]) of 0% and a Corn plant response rating (crop injury, 0 = no effect, 100 = complete kill) at 125 g/ha (corn; [8]) of 0%. For the same molecule, the Corn plant response rating (crop injury, 0 = no effect, 100 = complete kill) at 500 g/ha (corn; [8]) was 10%, the pest or weed control at 125 g/ha (goosegrass; read-out: Goosegrass plant response rating) was 30% and the pest or weed control at 500 g/ha (goosegrass; [9]) was 70%. The pest or weed control at 250 g/ha (sedge, umbrella) was 0%, the pest or weed control at 125 g/ha (oat, wild; 125 g ai/ha, read-out: Oat, Wild plant response rating) was 10% and the pest or weed control at 500 g/ha (oat, wild) was 40%. For the same molecule, the pest or weed control at 125 g/ha (ryegrass, Italian; 125 g ai/ha, read-out: Ryegrass, Italian plant response rating) was 30%, the pest or weed control at 500 g/ha (ryegrass, Italian) was 60% and the pest or weed control at 125 g/ha (foxtail, giant; read-out: Foxtail, Giant plant response rating) was 20%. For the same molecule, the pest or weed control at 500 g/ha (foxtail, giant; [10]) was 70%, the plant injury at 125 g/ha (wheat [1]; [8]) was 0% and the plant injury at 500 g/ha (wheat [1]; [8]) was 20%. For the same molecule, the pest or weed control at 125 g/ha (ragweed [2]; 125 g ai/ha, read-out: Ragweed plant response rating) was 0%, the pest or weed control at 500 g/ha (ragweed [2]) was 0% and the pest or weed control at 125 g/ha (pigweed, palmer; [8]) was 20%. The pest or weed control at 500 g/ha (pigweed, palmer; [8]) was 80%, the plant injury at 125 g/ha (wheat [3]; 125 g ai/ha, read-out: Wheat plant response rating) was 10% and the plant injury at 500 g/ha (wheat [3]) was 40%. The pest or weed control at 125 g/ha (ragweed [4]; [8]) was 0%, the pest or weed control at 500 g/ha (ragweed [4]; [8]) was 40% and the plant injury at 125 g/ha (soybean [5]; [8]) was 30%. The plant injury at 500 g/ha (soybean [5]; [8]) was 70%, the plant injury at 125 g/ha (soybean [6]; 125 g ai/ha, read-out: Soybean plant response rating) was 60% and the plant injury at 500 g/ha (soybean [6]) was 100%.
For Cc1ncn(-c2ccc(C)c(C(=O)N3C[C@H](C)Oc4c(Cl)cccc43)c2)n1 (single isomer, unassigned) [Compound 74], the pest or weed control at 125 g/ha (galium; [7]) was 100%, the pest or weed control at 500 g/ha (galium; [7]) was 100% and the Corn plant response rating (crop injury, 0 = no effect, 100 = complete kill) at 125 g/ha (corn; [8]) was 40%. The Corn plant response rating (crop injury, 0 = no effect, 100 = complete kill) at 500 g/ha (corn; [11]) was 90%, the pest or weed control at 125 g/ha (goosegrass; [9]) was 0% and the pest or weed control at 500 g/ha (goosegrass; [9]) was 0%. For the same molecule, the pest or weed control at 250 g/ha (sedge, umbrella) was 95%, the pest or weed control at 500 g/ha (oat, wild) was 60% and the pest or weed control at 500 g/ha (ryegrass, Italian) was 100%. It also gave a pest or weed control at 125 g/ha (foxtail, giant; [10]) of 90%, a pest or weed control at 500 g/ha (foxtail, giant; [10]) of 90% and a plant injury at 125 g/ha (wheat [1]; [8]) of 20%. It also gave a plant injury at 500 g/ha (wheat [1]; [11]) of 90%, a pest or weed control at 500 g/ha (ragweed [2]) of 50% and a pest or weed control at 125 g/ha (pigweed, palmer; [8]) of 90%. It also gave a pest or weed control at 500 g/ha (pigweed, palmer; [11]) of 100%, a plant injury at 500 g/ha (wheat [3]) of 80% and a pest or weed control at 125 g/ha (ragweed [4]; [8]) of 0%. For the same molecule, the pest or weed control at 500 g/ha (ragweed [4]; [11]) was 100%, the plant injury at 125 g/ha (soybean [5]; [8]) was 70% and the plant injury at 500 g/ha (soybean [5]; [11]) was 100%. It also gave a plant injury at 500 g/ha (soybean [6]) of 100%.
